According to paper PMC12670317, “Targeted NAT10 Degradation by PROTAC NP1192 Suppresses Hypoxia-Adaptive Glycolysis and Reinvigorates CD8^+ Effector T‑Cell Function for Synergistic Cancer Immunotherapy” (ACS Central Science, 2025):

Tests used:
[1] = test system: glioblastoma (GBM) patient-derived organoids; experiment: ATP-based viability assay in patient-derived organoids, GBM; assay type: cell-based; conditions: Homo sapiens, GBM PDOs, read-out: IC50, organoid viability
Procedure: (§1) Organoid culture was performed according to previously established protocols. Briefly, we procured patient-derived tissue samples provided and technically manipulated by Accurate International Biotechnology Co., Ltd. Subsequently, these samples were subjected to mechanical and enzymatic dissociation to disaggregate the tissue into single cells or small clusters, while preserving cellular integrity. Following this initial step, the isolated cells or tissue fragments were embedded within a 3D ECM scaffold, such as Matrigel or collagen. The ECM scaffold served as a supportive substrate, promoting cellular self-organization and mimicking native tissue architecture. Additionally, a precisely formulated cocktail of growth factors, cytokines, and signaling molecules tailored to the specific tissue of interest was meticulously formulated and added to the culture medium to facilitate organoid growth and maintenance.

PD-L1 = PD-L1 protein level in SiHa cells, Western blot; assay type: cell-based, human; conditions: 36 h
Procedure: RIPA lysis buffer (Beyotime, China) mixed with 1% protease inhibitor (Sigma, US) was added to the cells, and a sample of total protein was obtained and then loaded onto an 8% or 12% polyacrylamide gel. The gel was placed in a buffer solution, and an electric current was applied. The separated proteins were subsequently transferred from the gel onto a PVDF membrane. Next, the membrane was blocked with 5% milk for 1 h to prevent nonspecific antibody binding. The membranes were subsequently incubated with anti-NAT10 (1:1000, Abcam, USA), anti-PD-L1 (1:1000, Proteintech, China), anti-HIF-1α (1:1000, Abmart, China), and anti-β-tubulin (1:1000, Proteintech, China) primary antibodies for 12 h. Afterward, the membrane was sequentially washed with 1× TBST and incubated for 1 h with an antimouse secondary antibody (1:6000, Elabscience, China) or antirabbit secondary antibody (1:6000, Elabscience, China). The target proteins were detected via chemiluminescence with a ChemiDoc MP Imaging System (Bio-Rad, US).

[2] = test system: high-grade serous ovarian carcinoma (OV) patient-derived organoids; experiment: ATP-based viability assay in patient-derived organoids, OV; assay type: cell-based; conditions: Homo sapiens, OV PDOs, read-out: IC50, organoid viability
Procedure: as §1

[3] = test system: CD8+ T cells cocultured with U14 cells; conditions: Figure 7B, coculture with U14 cells, 36 h
Procedure: Fresh CD8^+ T cells were extracted according to the instructions of the kit. The day before the CD8^+ T cells were extracted, the antimouse CD3 antibody was diluted to 5 μg/mL with sterile PBS, and the diluted antibody was added to a 24-well plate and incubated overnight at 4 °C. (Before the antibody was added to the plate, the plate was rinsed with sterile PBS 2–3 times to avoid dry wells). The plate incubated the previous day was removed from the 4 °C refrigerator on the second day, and the coating solution was discarded, followed by washing with sterile PBS 3 times. Amplification culture medium consisting of DMEM + 10% serum + 5 μg/mL antimouse CD28 + IL-2 was prepared. The cell lines used for culture were maintained in the logarithmic growth phase (70–80% confluence). Cell counting was performed, and CCa cells were seeded in a 12-well plate (10^5 cells/well) and cultured until adherence. T cells were mixed with tumor cells at different effector-to-target ratios (1:10) and then incubated with different drugs for 24 h. Flow cytometry experiments were then performed to detect the CD8^+ T-cell subtypes.

RNA ac4C modification = experiment: ac4C RNA dot blot in SiHa cells; assay type: cell-based, human; conditions: 20 μM, 36 h, vs Remodelin-treated and NAT10-knockdown groups
Procedure: RNA was extracted from cells via an RNA extraction kit (TransGen, China) and denatured by heating to 65 °C for 5 min in the presence of 2× RNA denaturation buffer (Solarbio, China) followed by an equal amount of 20x SSC buffer (Beyotime, China). A nylon membrane (Yeasen, China) was used to immobilize the denatured RNA by dotting RNA samples onto the membrane and cross-linking the RNA to the membrane via UV light. The samples were stained with methylene blue and photographed. Furthermore, the membrane was blocked with 5% milk and incubated with an anti-ac4C primary antibody (1:1000, Abcam, US) for 12 h. After the unbound primary antibody was washed away, the membrane was incubated with a secondary antibody (1:6000, Elabscience, China). The membrane was then washed to remove unbound secondary antibodies, and a detection reagent (Bio-Rad, US) was added to visualize the RNA bands via chemiluminescence with a ChemiDoc MP Imaging System (Bio-Rad, US).

SiHa cells = experiment: Lactic acid, ATP and 2-NBDG uptake assays in SiHa cells; assay type: cell-based, human; conditions: 20 μM, 36 h
Procedure: SiHa and U14 cells (2 × 10^5 cells per well) were plated in 6-well plates and cultured in RPMI 1640 medium or DMEM supplemented with 10% FBS and 1% penicillin–streptomycin. After cell adherence, 20 μM NP1192 or DMSO was added and incubated for 36 h, and the assays were performed according to the instruction manuals for the Lactate Assay Kit (Nanjing Jiancheng, China), ATP Assay Kit (Beyotime, China), and 2-NBDG reagent (GlpBio, US). All data analyses were performed via GraphPad Prism 9, and the data are presented as the means ± SEMs.

N#Cc1ccc(-c2csc(N(CCCCCCC(=O)N3CCN(c4cccc5c4C(=O)N(C4CCC(=O)NC4=O)C5=O)CC3)N=C3CCCC3)n2)cc1 (stereo not shown) [NP1192]
IC50 [1]: 13.8 µM | PD-L1 protein level (PD-L1): pronounced downregulation of PD-L1 | IC50 [2]: 9.95 µM | Teff cells, IFN-γ gate (lower row) [3]: 7.75% | RNA ac4C levels (RNA ac4C modification): significant reduction in ac4C levels | lactate levels (SiHa cells): significantly decreased lactate levels | absorbtion rate (glucose analog 2-NBDG) (SiHa cells; Figure 4K, DMSO 3.21): 1.94
